Experiments:
[1] = test system: Citrullinated Histone H3 in dHL-60 cells (differentiated HL-60); assay: dHL-60 Cit-H3 ELISA assay; type: cell-based, human; conditions: Homo sapiens, HL-60, 3 h, stimulation with 25 μM A23187 for 3 h, read-out: Average IC50 Abs
Experimental: Cell culture: HL-60 cells were grown in IMDM+20% FBS+1% PS. The suspension cells were split into 1:5 with fresh media every 2-3 days to maintain cell density between 1×10^5 to 1×10^6 viable cells/mL. HL-60 cells differentiation: HL-60 cells were diluted to 1×10^5 cells/mL and differentiated into neutrophil-like cells with 100 mM DMF treatment for 72 hours in flask at 37° C., 5% CO2. dHL-60 Cells plating: • 1) HL-60 cells were collected, and the plate was centrifuged at 1000 rpm for 5 min. • 2) The HL-60 cells were diluted to 1.25×10^6 cells/mL and plated into a 96-well plate with 80 μL/well (i.e., 1×10^5/well). The plate was then incubated in the incubator (5% CO2, 37° C.) for 30 min to allow cells to adhere. Compound treatment: • 1) Preparation of compound serial dilution (source plate 500×, final DMSO concentration: 0.2%): briefly, compounds were dissolved in 100% DMSO to a concentration of 20 mM (the stock solution) and a 3-fold serial dilution with 8-point doses was performed. • 2) A 10× compound solution was pipetted up and down; and 10 μL/well of compounds were added into each well and incubated for 30 min. Stimulation with 25 μM A23187: • 1) A solution of A23187 (250 μM) in complete IMDM (IMDM+10% FBS+1% PS) containing 150 U/mL S7 Nuclease was prepared. The obtained solution was added 10 μL/well into each well and incubated for 3 h in the incubator (5% CO2, 37° C.). • 2) The dHL-60 cells treated with 10 μL/well complete IMDM without A23187 worked as negative control. Sample preparation: • 1) EDTA (0.5 M, 2 μL/well) were added to all the wells to stop the reaction. • 2) The plate was centrifuged at 1000 rpm for 5 min to collect supernatant. • 3) The supernatant was then diluted at least 1:2 before adding to the ELISA plate for citrullinated H3 analysis.
The standard was reconstituted with 2 mL of Assay buffer to 500 ng/mL. The reconstituted standard was relatively unstable at 4° C. and should be used within 3 hr after reconstitution.
• 1) 100 μL of the standards or diluted samples were added to the wells on the ELISA plate. • 2) The plate was covered with Cover Sheet and incubated for 2 h at room temperaturert on an orbital shaker.
On the day of the assay, the reagent was thawed at room temperaturert. For one plate, 1.2 mL of HRP Conjugate were diluted into 10.8 mL of assay buffer. A diluted HRP Conjugate was prepared shortly before use.
• 1) The wells were empties and rinsed four times with 1× wash buffer with 300 μL/well (Low speed). The plate was inverted between wash steps to empty the plate. After the last wash, the inverted plate was gently tapped on absorbent paper to remove the residual wash buffer. • 2) 100 μL of the HRP Conjugate working solution were added to each well of the plate. • 3) The plate was covered with cover sheet and incubated for 1 h at RT on an orbital shaker.
• 1) The wells were empties and rinsed four times with 1× wash buffer with 300 μL/well (low speed). The plate was inverted between wash steps to empty the plate. […] 100 uL of HRP STOP solution were added to each well of the plate.
• 1) Wipe the bottom of the plate with a clean tissue to remove fingerprints, dirt, etc. • 2) Read the plate at a wavelength of 450 nm.
The percent (%) inhibition at each concentration of compound was calculated based on and relative to the signal in the HPE and ZPE wells contained within each assay plate. The HPE wells worked as […], and the ZPE wells didn't contain any compound but rather DMSO (final concentration=0.1%) as […]. The concentrations and % inhibition values for tested compounds were plotted and the concentration of compound required for 50% inhibition (IC50) was determined with a Four-parameter logistic dose response equation. The endpoint value (IC50) for the reference peptide/compound was evaluated in each experiment as a quality control measure. If the endpoint value is within 3-fold of the expected value then the experiment is deemed acceptable. […]

[2] = molecular target: Protein arginine deiminase 4 (PAD4) (Homo sapiens, UniProt Q9UM07); assay: PAD4 ammonia release assay; type: biochemical; conditions: for IC50: PAD4 ammonia release assay, BAEE substrate, 60 min at RT, read-out: Average IC50 Abs
Procedure, shortened: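 Ammonia release from BAEE substrate (2× mix 600 μM) was measured after 60 min at RT, following 15 min enzyme–compound preincubation (PAD4 2× 20 nM; pH 8.0 HEPES, 2 mM CaCl2, TCEP; 1.25% DMSO). Detection used OPA/DTT/EDTA for 120 min. % inhibition was taken versus reference-compound and DMSO controls; IC50 by four-parameter logistic fit.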

Chain of Protein arginine deiminase 4 (PAD4) (Q9UM07 whole entry): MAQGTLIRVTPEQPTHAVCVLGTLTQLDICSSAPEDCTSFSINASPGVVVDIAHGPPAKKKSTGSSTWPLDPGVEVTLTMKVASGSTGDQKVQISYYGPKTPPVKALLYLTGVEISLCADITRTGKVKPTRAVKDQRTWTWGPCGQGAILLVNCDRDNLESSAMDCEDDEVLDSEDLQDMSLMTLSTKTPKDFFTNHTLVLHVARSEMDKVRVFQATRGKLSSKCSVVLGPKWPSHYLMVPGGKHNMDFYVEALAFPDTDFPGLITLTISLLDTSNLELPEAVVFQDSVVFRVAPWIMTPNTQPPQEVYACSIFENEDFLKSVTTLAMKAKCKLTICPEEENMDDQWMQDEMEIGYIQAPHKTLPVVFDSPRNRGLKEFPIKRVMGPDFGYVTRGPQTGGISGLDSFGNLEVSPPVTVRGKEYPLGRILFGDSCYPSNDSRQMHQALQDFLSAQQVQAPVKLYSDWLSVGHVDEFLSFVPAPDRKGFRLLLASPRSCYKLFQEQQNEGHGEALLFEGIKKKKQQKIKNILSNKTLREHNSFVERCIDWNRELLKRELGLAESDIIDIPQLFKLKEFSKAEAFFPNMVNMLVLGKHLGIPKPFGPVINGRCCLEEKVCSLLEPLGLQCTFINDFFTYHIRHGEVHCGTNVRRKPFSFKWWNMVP

Compound	IC50 [1]	IC50 [2]	relative potency of separated isomers in the PAD4 biochemical assay ([2]; SFC-separated stereoisomer pairs)
COc1cc(C(=O)N2C[C@H](N)C[C@@H](F)C2)cc2nc(-c3cc4cccc5c4n3C(C)CN5CCCO)n(C)c12 (stereo partly drawn) [Example 64, ((3R,5R)-3-amino-5-fluoropiperidin-1-yl)(2-(1-(3-hydroxypropyl)-3-methyl-2,3-dihydro-1H-pyrrolo[1,2,3-de]quinoxalin-5-yl)-7-methoxy-1-methyl-1H-benzo[d]imidazol-5-yl)methanone]	100 to 500 nM	100 to 500 nM	
COc1cc(C(=O)N2C[C@H](N)C[C@@H](F)C2)cc2nc(-c3cc4cccc5c4n3CCN5CCCO)n(Cc3cnn(C)c3)c12 [Example 43, ((3R,5R)-3-amino-5-fluoropiperidin-1-yl)(2-(1-(3-hydroxypropyl)-2,3-dihydro-1H-pyrrolo[1,2,3-de]quinoxalin-5-yl)-7-methoxy-1-((1-methyl-1H-pyrazol-4-yl)methyl)-1H-benzo[d]imidazol-5-yl)methanone]	500 to 5000 nM	≤ 100 nM	
CC[C@H]1CNc2cccc3cc(-c4nc5cc(C(=O)N6C[C@H]7CC[C@@H]6[C@@H]7N)cc(F)c5n4C)n1c23 [Example 74, ((1R,4R,7R)-7-amino-2-azabicyclo[2.2.1]heptan-2-yl)(2-((S)-3-ethyl-2,3-dihydro-1H-pyrrolo[1,2,3-de]quinoxalin-5-yl)-7-fluoro-1-methyl-1H-benzo[d]imidazol-5-yl)methanone]	≤ 100 nM	≤ 100 nM	more potent than Example 73
CCn1cc(Cn2c(-c3cc4cccc5c4n3CCN5CC(F)(F)F)nc3cc(C(=O)N4C[C@H](N)C[C@@H](F)C4)cc(F)c32)cn1 [Example 47, ((3R,5R)-3-amino-5-fluoropiperidin-1-yl)(1-((1-ethyl-1H-pyrazol-4-yl)methyl)-7-fluoro-2-(1-(2,2,2-trifluoroethyl)-2,3-dihydro-1H-pyrrolo[1,2,3-de]quinoxalin-5-yl)-1H-benzo[d]imidazol-5-yl)methanone]	500 to 5000 nM	100 to 500 nM	
CCC1CN(CCCO)c2cccc3cc(-c4nc5cc(C(=O)N6C[C@H](N)C[C@@H](F)C6)cc(OC)c5n4C)n1c23 (stereo partly drawn) [Example 80, ((3R,5R)-3-amino-5-fluoropiperidin-1-yl)(2-(3-ethyl-1-(3-hydroxypropyl)-2,3-dihydro-1H-pyrrolo[1,2,3-de]quinoxalin-5-yl)-7-methoxy-1-methyl-1H-benzo[d]imidazol-5-yl)methanone]	100 to 500 nM	100 to 500 nM	
COc1cc(C(=O)N2C[C@H](N)C[C@@H](F)C2)cc2nc(-c3cc4cccc5c4n3CCN5CCCO)n(C)c12 [Example 13]	500 to 5000 nM	100 to 500 nM	
CCC1CN(CCCO)c2cccc3cc(-c4nc5cc(C(=O)N6C[C@H]7CC[C@@H]6[C@@H]7N)cc(F)c5n4C)n1c23 (stereo partly drawn) [Example 69, ((1R,4R,7R)-7-amino-2-azabicyclo[2.2.1]heptan-2-yl)(2-(3-ethyl-1-(3-hydroxypropyl)-2,3-dihydro-1H-pyrrolo[1,2,3-de]quinoxalin-5-yl)-7-fluoro-1-methyl-1H-benzo[d]imidazol-5-yl)methanone]	≤ 100 nM	≤ 100 nM	

Results, then the compound that gave them:

IC50 [1]	IC50 [2]	relative potency of separated isomers in the PAD4 biochemical assay ([2]; SFC-separated stereoisomer pairs)	Compound
≤ 100 nM	100 to 500 nM		Cn1c(-c2cc3cccc4c3n2C(C2CCC2)CN4)nc2cc(C(=O)N3C[C@H]4CC[C@@H]3[C@@H]4N)cc(F)c21 (stereo partly drawn) [Example 164, ((1R,4R,7R)-7-amino-2-azabicyclo[2.2.1]heptan-2-yl)(2-(3-cyclobutyl-2,3-dihydro-1H-pyrrolo[1,2,3-de]quinoxalin-5-yl)-7-fluoro-1-methyl-1H-benzo[d]imidazol-5-yl)methanone]
≤ 100 nM	≤ 100 nM		Cn1c(-c2cc3cccc4c3n2[C@@H](C2CC2)CN4CCCO)nc2cc(C(=O)N3C[C@H]4CC[C@@H]3[C@@H]4N)cc(F)c21 (single isomer, unassigned) [Example 112]
100 to 500 nM	100 to 500 nM		Cn1c(-c2cc3cc(F)cc4c3n2C(C2CC2)CN4)nc2cc(C(=O)N3C[C@H]4CC[C@@H]3[C@@H]4N)cc(F)c21 (stereo partly drawn) [Example 122, ((1R,4R,7R)-7-amino-2-azabicyclo[2.2.1]heptan-2-yl)(2-(3-cyclopropyl-8-fluoro-2,3-dihydro-1H-pyrrolo[1,2,3-de]quinoxalin-5-yl)-7-fluoro-1-methyl-1H-benzo[d]imidazol-5-yl)methanone]
100 to 500 nM	≤ 100 nM		CCC1CN(CCC(N)=O)c2cccc3cc(-c4nc5cc(C(=O)N6C[C@H](N)C[C@@H](F)C6)cc(OC)c5n4C)n1c23 (stereo partly drawn) [Example 94, 3-(5-(5-((3R,5R)-3-amino-5-fluoropiperidine-1-carbonyl)-7-methoxy-1-methyl-1H-benzo[d]imidazol-2-yl)-3-ethyl-2,3-dihydro-1H-pyrrolo[1,2,3-de]quinoxalin-1-yl)propanamide]
≤ 100 nM	≤ 100 nM		Cn1c(-c2cc3cccc4c3n2[C@@H](C2CC2)CN4)nc2cc(C(=O)N3C[C@H]4CC[C@@H]3[C@@H]4N)cc(F)c21 (single isomer, unassigned) [Example 110]
≤ 100 nM	≤ 100 nM		Cn1c(-c2cc3ccc4cc[nH]c4c3n2CC2CC2)nc2cc(C(=O)N3C[C@H]4CC[C@@H]3[C@@H]4N)cc(F)c21 [Example 148, ((1R,4R,7R)-7-amino-2-azabicyclo[2.2.1]heptan-2-yl)(2-(1-(cyclopropylmethyl)-1,8-dihydropyrrolo[3,2-g]indol-2-yl)-7-fluoro-1-methyl-1H-benzo[d]imidazol-5-yl)methanone]
≤ 100 nM	100 to 500 nM		CCC1CN(CCCO)c2cccc3cc(-c4nc5cc(C(=O)N6C[C@H]7CC[C@@H]6[C@@H]7N)cc(F)c5n4CC4COC4)n1c23 (stereo partly drawn) [Example 92, ((1R,4R,7R)-7-amino-2-azabicyclo[2.2.1]heptan-2-yl)(2-(3-ethyl-1-(3-hydroxypropyl)-2,3-dihydro-1H-pyrrolo[1,2,3-de]quinoxalin-5-yl)-7-fluoro-1-(oxetan-3-ylmethyl)-1H-benzo[d]imidazol-5-yl)methanone]
≤ 100 nM	≤ 100 nM		Cn1c(-c2cc3ccc(C#N)c4c3n2[C@@H](C2CC2)CN4)nc2cc(C(=O)N3C[C@H]4CC[C@@H]3[C@@H]4N)cc(F)c21 (single isomer, unassigned) [Example 115]
100 to 500 nM	100 to 500 nM		CCC1CNc2cc(F)cc3cc(-c4nc5cc(C(=O)N6C[C@H]7CC[C@@H]6[C@@H]7N)cc(F)c5n4C)n1c23 (stereo partly drawn) [Example 130, ((1R,4R,7R)-7-amino-2-azabicyclo[2.2.1]heptan-2-yl)(2-(3-ethyl-8-fluoro-2,3-dihydro-1H-pyrrolo[1,2,3-de]quinoxalin-5-yl)-7-fluoro-1-methyl-1H-benzo[d]imidazol-5-yl)methanone]

From patent US20250136607A1 (REGOR PHARMACEUTICALS, INC., priority 2021, published 2025)
